Results: PubChem BioAssay (NCI)
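Protocol summary: plate cells (96-well), add compound at 5 concentrations, incubate 48 h, interpolate endpoints linearly. Here, GI50 denotes the concentration required for 50% inhibition of growth. TGI denotes the concentration required for complete inhibition of growth.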

How the values were obtained:
Assay in all cases: inhibition of tumour cell growth, NCI panel, 48 h
DU-145 prostate = system: DU-145 prostate
CAKI-1 renal = system: CAKI-1 renal
ACHN renal = system: ACHN renal
RPMI-8226 leukemia = system: RPMI-8226 leukemia
MOLT-4 leukemia = system: MOLT-4 leukemia
HOP-62 NSCLC = system: HOP-62 NSCLC
SK-MEL-5 melanoma = system: SK-MEL-5 melanoma
OVCAR-8 ovarian = system: OVCAR-8 ovarian
EKVX NSCLC = system: EKVX NSCLC
OVCAR-4 ovarian = system: OVCAR-4 ovarian
786-0 renal = system: 786-0 renal
KM12 colon = system: KM12 colon
A498 renal = system: A498 renal
COLO 205 colon = system: COLO 205 colon
UACC-257 melanoma = system: UACC-257 melanoma
NCI/ADR-RES ovarian = system: NCI/ADR-RES ovarian
CCRF-CEM leukemia = system: CCRF-CEM leukemia
NCI-H522 lung = system: NCI-H522 lung
RXF 393 renal = system: RXF 393 renal
MCF7 breast = system: MCF7 breast
HS 578T breast = system: HS 578T breast
NCI-H460 lung = system: NCI-H460 lung
K-562 leukemia = system: K-562 leukemia
TK-10 renal = system: TK-10 renal
NCI-H226 lung = system: NCI-H226 lung
SF-295 CNS = system: SF-295 CNS
SK-OV-3 ovarian = system: SK-OV-3 ovarian
SF-539 CNS = system: SF-539 CNS
LOX IMVI melanoma = system: LOX IMVI melanoma
OVCAR-5 ovarian = system: OVCAR-5 ovarian
IGROV1 ovarian = system: IGROV1 ovarian
PC-3 prostate = system: PC-3 prostate
UACC-62 melanoma = system: UACC-62 melanoma
HCT-116 colon = system: HCT-116 colon
UO-31 renal = system: UO-31 renal
HL-60(TB) leukemia = system: HL-60(TB) leukemia
U251 CNS = system: U251 CNS
MDA-MB-231 breast = system: MDA-MB-231 breast
SF-268 CNS = system: SF-268 CNS
SNB-75 CNS = system: SNB-75 CNS
SR leukemia = system: SR leukemia
HT29 colon = system: HT29 colon
SNB-19 CNS = system: SNB-19 CNS
SW-620 colon = system: SW-620 colon
HCC-2998 colon = system: HCC-2998 colon
SK-MEL-28 melanoma = system: SK-MEL-28 melanoma
SN12C renal = system: SN12C renal
BT-549 breast = system: BT-549 breast
T-47D breast = system: T-47D breast
MALME-3M melanoma = system: MALME-3M melanoma
A549 NSCLC = system: A549 NSCLC
HOP-92 NSCLC = system: HOP-92 NSCLC
M14 melanoma = system: M14 melanoma
SK-MEL-2 melanoma = system: SK-MEL-2 melanoma
HCT-15 colon = system: HCT-15 colon

## Cc1ccccc1N1CCN(C2=C(Cl)C(=O)c3ncccc3C2=O)CC1
DU-145 prostate
  GI50: 3.8 µM
  TGI: > 100 µM
CAKI-1 renal
  GI50: 2.78 µM
  TGI: > 100 µM
ACHN renal
  GI50: 1.85 µM
  TGI: 3.89 µM
RPMI-8226 leukemia
  GI50: 2 µM
  TGI: 5.22 µM
MOLT-4 leukemia
  GI50: 1.78 µM
  TGI: 4.95 µM
HOP-62 NSCLC
  GI50: 35.1 µM
  TGI: > 100 µM
SK-MEL-5 melanoma
  GI50: 4.98 µM
  TGI: 17.7 µM
OVCAR-8 ovarian
  GI50: 1.91 µM
  TGI: 4.35 µM
EKVX NSCLC
  GI50: 1.68 µM
  TGI: 3.1 µM
OVCAR-4 ovarian
  GI50: 1.75 µM
  TGI: 3.23 µM
786-0 renal
  GI50: 1.71 µM
  TGI: 3.09 µM
KM12 colon
  GI50: 48.1 µM
  TGI: > 100 µM
A498 renal
  GI50: > 100 µM
  TGI: > 100 µM
COLO 205 colon
  GI50: 3.14 µM
  TGI: 10.8 µM
UACC-257 melanoma
  GI50: 1.98 µM
  TGI: 4.25 µM
NCI/ADR-RES ovarian
  GI50: 2.51 µM
  TGI: 7.18 µM
CCRF-CEM leukemia
  GI50: 1.73 µM
  TGI: 5.19 µM
NCI-H522 lung
  GI50: 1.68 µM
  TGI: 3.31 µM
RXF 393 renal
  GI50: 1.74 µM
  TGI: 3.17 µM
MCF7 breast
  GI50: 1.46 µM
  TGI: 3.22 µM
HS 578T breast
  GI50: 4.94 µM
  TGI: 85.3 µM
NCI-H460 lung
  GI50: 6.68 µM
  TGI: 46.5 µM
K-562 leukemia
  GI50: 1.28 µM
  TGI: 4.08 µM
TK-10 renal
  GI50: 4.76 µM
  TGI: > 100 µM
NCI-H226 lung
  GI50: 20.8 µM
  TGI: > 100 µM
SF-295 CNS
  GI50: 14.7 µM
  TGI: > 100 µM
SK-OV-3 ovarian
  GI50: 37.2 µM
  TGI: > 100 µM
SF-539 CNS
  GI50: 1.8 µM
  TGI: 3.32 µM
LOX IMVI melanoma
  GI50: 1.65 µM
  TGI: 3.21 µM
OVCAR-5 ovarian
  GI50: 6.89 µM
  TGI: 21.2 µM
IGROV1 ovarian
  GI50: 1.97 µM
  TGI: 4.09 µM
PC-3 prostate
  GI50: 1.63 µM
  TGI: 3.7 µM
UACC-62 melanoma
  GI50: 3.92 µM
  TGI: 42.2 µM
HCT-116 colon
  GI50: 1.56 µM
  TGI: 2.89 µM
UO-31 renal
  GI50: 1.49 µM
  TGI: 2.86 µM
HL-60(TB) leukemia
  GI50: 1.61 µM
  TGI: 4.05 µM
U251 CNS
  GI50: 6 µM
  TGI: 25.6 µM
MDA-MB-231 breast
  GI50: 1.71 µM
  TGI: 3.27 µM
SF-268 CNS
  GI50: 23.7 µM
  TGI: > 100 µM
SNB-75 CNS
  GI50: 17.4 µM
  TGI: > 100 µM
SR leukemia
  GI50: 1 µM
  TGI: 5 µM
HT29 colon
  GI50: 5.33 µM
  TGI: > 100 µM
SNB-19 CNS
  GI50: 30.3 µM
  TGI: > 100 µM
SW-620 colon
  GI50: 1.48 µM
  TGI: 3.45 µM
HCC-2998 colon
  GI50: 3.33 µM
  TGI: 13.8 µM
SK-MEL-28 melanoma
  GI50: 2.19 µM
  TGI: 5.06 µM
SN12C renal
  GI50: 3.56 µM
  TGI: 78.9 µM
BT-549 breast
  GI50: 1.96 µM
  TGI: 3.41 µM
T-47D breast
  GI50: 1.9 µM
  TGI: 4.35 µM
MALME-3M melanoma
  GI50: 2.03 µM
  TGI: 4.64 µM
A549 NSCLC
  GI50: 23.5 µM
  TGI: > 100 µM
HOP-92 NSCLC
  GI50: 1.36 µM
  TGI: 2.7 µM
M14 melanoma
  GI50: 2.2 µM
  TGI: 6.45 µM
SK-MEL-2 melanoma
  GI50: 2.75 µM
  TGI: 14.8 µM
HCT-15 colon
  GI50: 1.69 µM
  TGI: 4.52 µM
